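Each compound was tested at five concentrations against cells in 96-well plates for 48 hours. The concentration for 50% growth inhibition is given as GI50.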 Calls of active or inactive are those of the source. Rule as the data show it: active = GI50 up to about 1.1 µM and inactive = higher.
Columns and labels:
Assay in all cases: growth of human tumour cells (NCI), 48 h
BT-549 = system: BT-549
CAKI-1 = system: CAKI-1
CCRF-CEM = system: CCRF-CEM
DU-145 = system: DU-145
HL-60 = system: HL-60
HOP-92 = system: HOP-92
K562 = system: K562
KM12 = system: KM12
LOX IMVI = system: LOX IMVI
MCF7 = system: MCF7
MDA-N = system: MDA-N
MOLT-4 = system: MOLT-4
NCI-H23 = system: NCI-H23
OVCAR-5 = system: OVCAR-5
OVCAR-8 = system: OVCAR-8
SK-MEL-28 = system: SK-MEL-28
SK-MEL-5 = system: SK-MEL-5
SK-OV-3 = system: SK-OV-3
SN12C = system: SN12C
UO-31 = system: UO-31

Row | SMILES | GI50 (BT-549) | GI50 (CAKI-1) | GI50 (CCRF-CEM) | GI50 (DU-145) | GI50 (HL-60) | GI50 (HOP-92) | GI50 (K562) | GI50 (KM12) | GI50 (LOX IMVI) | GI50 (MCF7) | GI50 (MDA-N) | GI50 (MOLT-4) | GI50 (NCI-H23) | GI50 (OVCAR-5) | GI50 (OVCAR-8) | GI50 (SK-MEL-28) | GI50 (SK-MEL-5) | GI50 (SK-OV-3) | GI50 (SN12C) | GI50 (UO-31)
1 | COC(=O)[C@H]1COC(=O)N1 | > 100 µM (inactive) | > 100 µM (inactive) | > 100 µM (inactive) | > 100 µM (inactive) | 89.7 µM (inactive) | > 100 µM (inactive) | > 100 µM (inactive) | > 100 µM (inactive) | > 100 µM (inactive) | > 100 µM (inactive) | > 100 µM (inactive) | > 100 µM (inactive) | > 100 µM (inactive) | > 100 µM (inactive) | > 100 µM (inactive) | > 100 µM (inactive) | > 100 µM (inactive) | > 100 µM (inactive) | > 100 µM (inactive) | > 100 µM (inactive)
2 | CC(Br)C(=O)c1ccc2cc(Br)c3ccccc3c2c1 (stereo not drawn) | 15.1 µM (inactive) | 16.1 µM (inactive) | 2.45 µM (inactive) | 16.5 µM (inactive) | 12 µM (inactive) | 16.4 µM (inactive) | 4.18 µM (inactive) | 17.2 µM (inactive) | 6.79 µM (inactive) | 14.9 µM (inactive) | 12.9 µM (inactive) |  | 16 µM (inactive) | 17 µM (inactive) | 14 µM (inactive) | 18.6 µM (inactive) | 14 µM (inactive) | 16.8 µM (inactive) | 7.01 µM (inactive) | 17.6 µM (inactive)
3 | OCc1ccc(-c2ccc(-c3ccc(CO)s3)o2)s1 | 4.04 µM (inactive) | 0.0116 µM (active) | 2.59 µM (inactive) | 6.07 µM (inactive) | 3.56 µM (inactive) | 32.6 µM (inactive) | 0.596 µM (active) | 20.7 µM (inactive) | 21.8 µM (inactive) | 0.0336 µM (active) | 5.06 µM (inactive) | 3.21 µM (inactive) | 17.9 µM (inactive) | 0.02 µM (active) | 12.1 µM (inactive) | 42.7 µM (inactive) | 20.7 µM (inactive) | 7.06 µM (inactive) | 5.13 µM (inactive) | 35.5 µM (inactive)
4 | CCCCC1C(=O)N(c2ccc(S(=O)(=O)Nc3ccccn3)cc2)N(c2ccc(O)c(C(=O)O)c2)C1=O (stereo not drawn) | > 100 µM (inactive) | > 100 µM (inactive) | > 100 µM (inactive) | > 100 µM (inactive) | > 100 µM (inactive) | > 100 µM (inactive) | > 100 µM (inactive) | > 100 µM (inactive) | > 100 µM (inactive) | > 100 µM (inactive) | > 100 µM (inactive) | > 100 µM (inactive) | > 100 µM (inactive) | > 100 µM (inactive) | > 100 µM (inactive) | > 100 µM (inactive) | > 100 µM (inactive) | > 100 µM (inactive) | > 100 µM (inactive) | > 100 µM (inactive)
5 | C[C@]12CCC(=O)C=C1CC[C@@H]1C2CC[C@]2(C)Nc3c(ncn3-c3ccc(F)cc3)CC12 (stereo partly drawn) | 20.3 µM (inactive) | 46.2 µM (inactive) | 21 µM (inactive) | 23.7 µM (inactive) | 3.2 µM (inactive) | 33.2 µM (inactive) | 5.82 µM (inactive) | 17.2 µM (inactive) |  | 18 µM (inactive) | 11.8 µM (inactive) | 23.3 µM (inactive) | 23.1 µM (inactive) | 40.7 µM (inactive) | 35.2 µM (inactive) | 29.3 µM (inactive) | 13.5 µM (inactive) | 39.3 µM (inactive) | 41.3 µM (inactive) | 27 µM (inactive)
6 | COc1cc(C2C3=C(COC3=O)OC(C)(C)Oc3cc4c(cc32)OCO4)cc(OC)c1O (stereo not drawn) | 12.9 µM (inactive) | 1.87 µM (inactive) | 1.36 µM (inactive) | 1.39 µM (inactive) | 0.291 µM (active) | 0.392 µM (active) | 0.383 µM (active) | 0.531 µM (active) | 0.706 µM (active) | 0.364 µM (active) | 0.199 µM (active) | 3.11 µM (inactive) | 1.86 µM (inactive) | 3.58 µM (inactive) | 0.964 µM (active) | 0.973 µM (active) | 0.246 µM (active) | 0.757 µM (active) | 2.79 µM (inactive) | 7.1 µM (inactive)
7 | CSc1ccc(NC(=O)C2CCCCC2C(=O)O)cc1 (stereo not drawn) | > 100 µM (inactive) | > 100 µM (inactive) | > 100 µM (inactive) | > 100 µM (inactive) | > 100 µM (inactive) | > 100 µM (inactive) | > 100 µM (inactive) | > 100 µM (inactive) | > 100 µM (inactive) | > 100 µM (inactive) | > 100 µM (inactive) | 38.6 µM (inactive) | > 100 µM (inactive) | > 100 µM (inactive) | > 100 µM (inactive) | > 100 µM (inactive) | > 100 µM (inactive) | > 100 µM (inactive) | > 100 µM (inactive) | > 100 µM (inactive)
8 | CCOC(=O)c1csc(-c2cn(C)c3c2C(=O)C(OC)=CC3=O)n1 | > 40.3 µM (inactive) | > 91.2 µM (inactive) | 72.8 µM (inactive) | 6.05 µM (inactive) | 13 µM (inactive) | 40.5 µM (inactive) | 21.6 µM (inactive) | 20 µM (inactive) | 2.6 µM (inactive) | 7.6 µM (inactive) | 15.6 µM (inactive) | > 100 µM (inactive) | 11.3 µM (inactive) | 31.1 µM (inactive) | 45.2 µM (inactive) | 32.6 µM (inactive) | 3.91 µM (inactive) | 69 µM (inactive) | > 75.2 µM (inactive) | 44.4 µM (inactive)
9 | CC(Cl)CN1c2ccccc2Sc2ccc(Cl)cc21 (stereo not drawn) | > 10 µM (inactive) | > 10 µM (inactive) | > 10 µM (inactive) | > 10 µM (inactive) | > 10 µM (inactive) | > 10 µM (inactive) | > 10 µM (inactive) | > 10 µM (inactive) | > 10 µM (inactive) | > 10 µM (inactive) | > 10 µM (inactive) | > 10 µM (inactive) | > 10 µM (inactive) | > 10 µM (inactive) | > 10 µM (inactive) | > 10 µM (inactive) | > 10 µM (inactive) | > 10 µM (inactive) | > 10 µM (inactive) | > 10 µM (inactive)
10 | Cc1nc(O)nc(NNCc2ccc(Cl)cc2)c1C(=O)Nc1ccc(Cl)cc1 | > 100 µM (inactive) | > 100 µM (inactive) | > 100 µM (inactive) | 29.4 µM (inactive) | > 100 µM (inactive) | > 100 µM (inactive) |  | > 100 µM (inactive) | > 100 µM (inactive) | > 100 µM (inactive) | 81.1 µM (inactive) | > 100 µM (inactive) | > 100 µM (inactive) | > 100 µM (inactive) | > 100 µM (inactive) | > 100 µM (inactive) | > 100 µM (inactive) | > 100 µM (inactive) | > 100 µM (inactive) | > 100 µM (inactive)
11 | CCC(C#N)N(Cc1ccc(CN(C(=O)c2ccccc2)C(C#N)CC)cc1)C(=O)c1ccccc1 (stereo not drawn) | 27.5 µM (inactive) | 24.3 µM (inactive) | 17.8 µM (inactive) | 28.6 µM (inactive) | 29.8 µM (inactive) | 13.2 µM (inactive) | 13.9 µM (inactive) | 21.7 µM (inactive) | 15.9 µM (inactive) | 19.2 µM (inactive) | 32.4 µM (inactive) | 15.8 µM (inactive) | 25.7 µM (inactive) | 37.8 µM (inactive) | 31.6 µM (inactive) |  | 12.8 µM (inactive) | 23.9 µM (inactive) | 27.1 µM (inactive) | 19.7 µM (inactive)
12 | CN(C)C1(c2cc3ccccc3s2)CCCCC1 | 64.9 µM (inactive) | 61.5 µM (inactive) | < 0.01 µM (active) | 54.8 µM (inactive) | < 0.01 µM (active) | 1.79 µM (inactive) | 18 µM (inactive) | 36.5 µM (inactive) | 22.5 µM (inactive) | 48.6 µM (inactive) | 32.2 µM (inactive) | 19.2 µM (inactive) | 49.8 µM (inactive) | 22.5 µM (inactive) | 51.3 µM (inactive) |  | 17.4 µM (inactive) | 39.5 µM (inactive) | 53.2 µM (inactive) | 30.9 µM (inactive)
13 | O=C1CC(=O)N(C2CCCCC2)C(=O)N1c1ccccc1S(=O)(=O)Oc1ccccc1 | 49.5 µM (inactive) | > 100 µM (inactive) | 14.9 µM (inactive) | > 100 µM (inactive) | > 100 µM (inactive) | 12.9 µM (inactive) | 26.9 µM (inactive) | > 100 µM (inactive) | 2.59 µM (inactive) | > 100 µM (inactive) | > 100 µM (inactive) | 19.2 µM (inactive) |  | > 100 µM (inactive) | > 100 µM (inactive) | > 100 µM (inactive) | > 100 µM (inactive) | > 100 µM (inactive) | > 100 µM (inactive) | 18.1 µM (inactive)
14 | COc1ccc(-n2c(N)c(C#N)c(C#N)c2-c2ccco2)cc1 | 9.23 µM (inactive) | > 100 µM (inactive) | > 100 µM (inactive) | > 100 µM (inactive) | > 100 µM (inactive) | 16.8 µM (inactive) | 59.7 µM (inactive) | > 100 µM (inactive) | > 100 µM (inactive) | > 100 µM (inactive) | 45.5 µM (inactive) | 46.7 µM (inactive) | > 100 µM (inactive) | > 100 µM (inactive) | > 100 µM (inactive) |  | 78.5 µM (inactive) | > 100 µM (inactive) | > 100 µM (inactive) | 82.8 µM (inactive)

Source: ChEMBL document CHEMBL1201862, “PubChem BioAssay data set” (2004)
